Patent publication USRE50049E1, “Compositions and methods for treating psoriasis” (SYMBIONYX PHARMACEUTICALS INC, priority 2015, dated 2024)
“Also recorded” adds a separate entry of the source. Where a name gives a salt, the structure may show the parent alone. Read-outs that look alike come from different tables or passages of the source.

Key:
[1] = Lammintausta et al., Contact Dermatitis 2010; cited from earlier work
[2] = primary metabolite after oral administration of dimethyl fumarate; cited from earlier work
[3] = cited from earlier work
[4] = test system: TNF α-treated human dermal fibroblasts (HDF); experiment: PCR gene expression in TNF α-treated human dermal fibroblasts; format: cell-based; details: 24 hours, TNF-alpha 10 ng/ml
[5] = test system: stratum granulosum (StGrm) coverage of mouse tail epidermis; experiment: Murine tail model of psoriasis; format: in vivo; details: 2 weeks of application
Excerpt: The mouse tail test is a well-established animal model used for the development of FDA-approved anti-psoriasis drugs. Table 6 summarize the findings following 2 weeks of test material application on the tails, with the readout of improvement in stratum granulosum (StGrm) coverage +/− side effects.
The arrow in each photomicrograph points to the StGrm (stratum granulosum), which, as noted, is minimal in the control.

S. typhimurium TA1537 = details: % of mutant colonies spontaneously occurring in water control
S. typhimurium TA1535 = details: % of mutant colonies spontaneously occurring in water control
3T3 = 3T3 Neutral Red Uptake Phototoxicity Assay; format: cell-based; details: even at the maximum concentration required for testing (100 μg/ml)
Excerpt: The 3T3 Neutral Red Uptake Phototoxicity Assay was based on the OECD Guideline for Testing of Chemicals: […], with chlorpromazine and tazarotene as positive controls.

[6] = test system: skin of healthy adult volunteers; experiment: Human repeat insult patch test (HRIPT); details: IDMF 2% and 5% in butylene glycol/glycerin base
[7] = test system: S. typhimurium (TA1535, TA1537); experiment: AMES genotoxicity testing, overall conclusion (TA1535, TA1537); details: including at the highest concentration required for testing (5 mg/ml)
[8] = test system: psoriasiform keratinocytes (epidermal keratinocyte progenitors incubated with IL-17A/IL-22/TNFα); experiment: DNA microarray gene expression in psoriasiform keratinocyte cultures; format: cell-based, human; details: IDMF added after 24 h cytokine treatment, further 24 h
Protocol: Psoriasiform keratinocyte cultures were established by incubating epidermal keratinocyte progenitors from stratum basae (Zen-Bio, RTP, NC) with IL-17A/IL-22/TNFα ([…]) for 24 h. These cytokines have been reported to be key triggers in psoriasis (Y Tokura, T Mori, R Hino, Psoriasis and other Th17-mediated skin diseases. J UOEH, 32(4):317-328, 2010; A B Van Belle, M de Heusch, M M Lemaire, E Hendrickx, G Wamier, K Dunussi-Joannopoulos, L A Fouser, J C Renauld, L Dumoutier, IL-22 is required for imiquimod-induced psoriasiform skin inflammation in mice, J Immunol, 188(1):462-469, 2012; A Hänsel, C Günther, J Ingwersen, J Starke, M Schmitz, M Bachmann, M Meurer, E P Rieber, K Schäkel, Human slan (6-sulfo LacNAc) dendritic cells are inflammatory dermal dendritic cells in psoriasis and drive strong TH17/TH1 T-cell responses, J Allergy Clin Immunol, 127(3):787-794, 2011; Kim J, Krueger J G. The Immunopathogenesis of Psoriasis, Dermatol Clin, 33:13-23, 2015). […]
After 24 h of cytokine treatment, the IDMF test materials were added to cells and further incubation with IL-17A/IL-22/TNFα was pursued for another 24 h. At the end of the experiment total RNA was extracted from keratinocytes and quantified using DNA microarrays. […]

[9] = mouse tail, IDMF 2%, Tazorac 0.1% tazarotene

COC(=O)/C=C/C(=O)O [MMF, monomethyl fumarate]
skin sensitization [1]: known skin sensitizers | half-life [2]: 36 h | protein binding (bound) [3]: approximately 50%

COC(=O)/C=C/C(=O)OC [DMF, Dimethyl fumarate, reference compound]
protein binding [3]: does not display protein binding | NFKB expression ([4]; DMF 5 μg/ml): decreased

CCOC(=O)c1ccc(C#Cc2ccc3c(c2)C(C)(C)CCS3)nc1 [tazarotene, reference compound]
adverse effects in mouse tail test ([5]; positive control): substantial hyperkeratosis, spongiosis and wide-spread inflammation

COC(=O)/C=C/C(=O)OC1COC2C(OC(=O)/C=C/C(=O)OC)COC12 (centres unmarked) [IDMF, isosorbide di-(methylfumarate)]
% CTR (TA1537) (S. typhimurium TA1537; 8 μg/ml): 83 % CTR | % CTR (TA1537) (S. typhimurium TA1537; 40 μg/ml): 117 % CTR | % CTR (TA1537) (S. typhimurium TA1537; 200 μg/ml): 91 % CTR | % CTR (TA1537) (S. typhimurium TA1537; 1 mg/ml): 30 % CTR | % CTR (TA1537) (S. typhimurium TA1537; 5 mg/ml): 13 % CTR | % CTR (TA1535) (S. typhimurium TA1535; 8 μg/ml): 96 % CTR | % CTR (TA1535) (S. typhimurium TA1535; 40 μg/ml): 89 % CTR | % CTR (TA1535) (S. typhimurium TA1535; 200 μg/ml): 68 % CTR | % CTR (TA1535) (S. typhimurium TA1535; 1 mg/ml): 64 % CTR | % CTR (TA1535) (S. typhimurium TA1535; 5 mg/ml): 18 % CTR | phototoxicity (3T3): not phototoxic | conclusion of the HRIPT study [6]: non-sensitizing and non-irritating | participants with score zero ([6]; 100 healthy adult volunteers): 100% | skin sensitization/irritation score (scale 0-5) ([6]; 100 healthy adult volunteers): 0 | flushing ([6]; topical patch): no flushing was observed | genotoxicity (AMES) [7]: not genotoxic | COX-2 expression ([4]; IDMF 1 μg/ml): −2.4 fold | IL8 expression ([4]; IDMF 1 μg/ml): did not increase | NFKB expression ([4]; IDMF 1 μg/ml): decreased | Tail observations: epidermal thickness ([5]; mouse tail, IDMF 2% in butylene glycol/glycerin, Tazorac 0.1% tazarotene, control 3-4 layers): thickness (4-5 layers), | Tail observations: granular layer (StGrm) [5, 9]: significant extension of StGrm coverage; also recorded: extended granular layer | Tail observations: inflammatory (leukocyte) infiltrate [5, 9]: no inflammation; also recorded: no inflammatory infiltrate, | Tail observations: stratum corneum (StCr) [5, 9]: normal basketwave StCr, | StGrm expansion ([5]; mouse tail, control (no treatment) = 100, IDMF 2% in butylene glycol/glycerin, Tazorac 0.1% tazarotene, p < 0.0001): 134 (p < 0.0001) | TNFα/IFNγ/IL-17 responses (DNA microarray) [8]: significant inhibition | antioxidant pathways, especially those related to glutathione (DNA microarray) [8]: upregulated
